This is an account of results in patent US20090325959A1 (priority 2008, published 2009).

Molecules are shown by their SMILES. Read-outs that look alike come from different tables or passages of the source.

In one assay the target is T1, ROCK2 (Homo sapiens, UniProt O75116).
T1 construct: purchased Upstate/Chemicon 14-451
The experiment in a line: Rho kinase inhibition assay (IMAP fluorescence polarization), ROCK2.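 Also: kinase reaction started with 10 µM ATP and run 60 min at room temperature, then phosphorylated substrate captured on IMAP beads for 30 min and fluorescence polarization read in mP.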 The assay is classed as biochemical. For orientation: In fluorescence polarisation assays a small probe gives low polarisation when free and higher when bound to something large.

Another assay has as its target T2, ROCK1 (Homo sapiens, UniProt Q13464).
T2 construct: purchased Upstate/Chemicon 14-601
The assay is described as follows: Rho kinase inhibition assay (IMAP fluorescence polarization), ROCK1.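 Also: kinase reaction run 60 min at room temperature, then phosphorylated substrate captured on IMAP beads for 30 min, with fluorescence polarization read in mP.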 In kind it is biochemical.

Where [1] appears, read: 10 μM ATP, read-out: ROCK2 Ki, Avg.

T2 sequence (Q13464 17-535 limits assumed): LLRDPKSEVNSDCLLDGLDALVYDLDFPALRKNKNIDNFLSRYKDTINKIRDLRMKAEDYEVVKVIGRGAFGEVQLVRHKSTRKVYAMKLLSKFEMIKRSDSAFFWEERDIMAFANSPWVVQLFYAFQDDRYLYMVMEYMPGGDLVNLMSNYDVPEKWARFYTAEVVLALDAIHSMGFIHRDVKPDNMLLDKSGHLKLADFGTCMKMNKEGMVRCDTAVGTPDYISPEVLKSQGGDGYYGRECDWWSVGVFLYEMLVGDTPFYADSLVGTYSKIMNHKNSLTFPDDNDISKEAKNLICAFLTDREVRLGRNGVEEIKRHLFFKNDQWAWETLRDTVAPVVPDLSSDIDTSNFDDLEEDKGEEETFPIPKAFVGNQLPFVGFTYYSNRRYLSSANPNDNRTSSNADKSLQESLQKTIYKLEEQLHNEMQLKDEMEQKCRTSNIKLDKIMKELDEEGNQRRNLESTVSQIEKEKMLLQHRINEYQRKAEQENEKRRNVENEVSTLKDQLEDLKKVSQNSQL
T1 sequence (O75116 11-552 limits assumed): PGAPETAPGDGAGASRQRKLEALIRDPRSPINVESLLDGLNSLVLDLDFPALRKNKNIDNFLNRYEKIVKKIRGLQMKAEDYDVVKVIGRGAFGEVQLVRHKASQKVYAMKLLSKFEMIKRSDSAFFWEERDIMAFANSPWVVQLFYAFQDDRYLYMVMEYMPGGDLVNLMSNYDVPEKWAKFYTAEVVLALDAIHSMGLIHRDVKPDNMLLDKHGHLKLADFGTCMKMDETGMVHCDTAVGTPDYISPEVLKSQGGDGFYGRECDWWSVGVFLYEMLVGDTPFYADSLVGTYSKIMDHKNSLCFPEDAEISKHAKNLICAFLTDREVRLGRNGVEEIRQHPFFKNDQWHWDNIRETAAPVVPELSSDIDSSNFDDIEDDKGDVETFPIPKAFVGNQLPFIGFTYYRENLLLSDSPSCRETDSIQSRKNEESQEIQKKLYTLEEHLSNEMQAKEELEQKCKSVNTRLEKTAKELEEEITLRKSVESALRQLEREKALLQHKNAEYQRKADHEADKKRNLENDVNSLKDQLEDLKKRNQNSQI
Procedure for ROCK1: (§1) Following the pre-incubation, 10 μM ATP was added to initiate the reaction. After 60 minutes at room temperature, Molecular Devices IMAP™ binding solution was added to bind phosphorylated substrate. After 30 minutes of incubation in the presence of the IMAP™ beads, the fluorescence polarization was read and the ratio was reported as mP. IC50 values for compounds and EC50 values for ATP were calculated using the Prism software from Graphpad.
Procedure for ROCK2: as §1

Regarding `c1cnc(CN2CC[C@@H](Nc3cccc4cnccc34)C2)nc1` [Compound 2.085, (R)-N-(1-(pyrimidin-2-ylmethyl)pyrrolidin-3-yl)isoquinolin-5-amine], the Ki at ROCK2 (setting [1]) is 812 nM; at ROCK1 (Avg, 10 μM ATP), 2390 nM.

Consider `Cc1c(CN2CCC[C@H](Nc3ccc4[nH]ncc4c3)C2)cccc1NS(C)(=O)=O` [Compound 1.274, (S)-N-(3-((3-(1H-indazol-5-ylamino)piperidin-1-yl)methyl)-2-methylphenyl)methanesulfonamide], for which the Ki on ROCK2 (setting [1]) stood at 10.7 nM; at ROCK1 (Avg, 10 μM ATP), 223 nM.

As for `NC(=O)c1cccc(CN2CCC[C@@H](Nc3ccc4[nH]ncc4c3)C2)c1` [Compound 1.221, (R)-3-((3-(1H-indazol-5-ylamino)piperidin-1-yl)methyl)benzamide], the Ki was 30 nM at ROCK2 (setting [1]) and 264 nM at ROCK1 (Avg, 10 μM ATP).

In the case of `O=[N+]([O-])c1cc(CN2CC[C@@H](Nc3cccc4cnccc34)C2)cs1` [Compound 2.089, (R)-N-(1-((5-nitrothiophen-3-yl)methyl)pyrrolidin-3-yl)isoquinolin-5-amine], the Ki is 32.9 nM on ROCK2 (setting [1]) and 102 nM at ROCK1 (Avg, 10 μM ATP).

For the molecule `c1cc2c(cc1CN1CCC[C@@H](Nc3ccc4[nH]ncc4c3)C1)OCCO2` [Compound 1.177, (R)-N-(1-((2,3-dihydrobenzo[b][1,4]dioxin-6-yl)methyl)piperidin-3-yl)-1H-indazol-5-amine], the Ki worked out at 18.2 nM on ROCK2 (setting [1]) and 156 nM at ROCK1 (Avg, 10 μM ATP).

With `O=S(=O)(Nc1cccc(CN2CCC[C@H](Nc3ccc4[nH]ncc4c3)C2)c1)N1CCCCC1` [Compound 1.270, (S)-N-(3-((3-(1H-indazol-5-ylamino)piperidin-1-yl)methyl)phenyl)piperidine-1-sulfonamide], the Ki at ROCK2 (setting [1]) stood at 9.9 nM; on ROCK2 (average Ki, read-out: ROCK2 Ki), 9.9 nM; on ROCK1 (Avg, 10 μM ATP) it was 130 nM; at ROCK1 (average Ki), 130 nM.

Regarding `c1ccc(Cn2cc(CN3CCC[C@@H](Nc4ccc5[nH]ncc5c4)C3)c3ccccc32)cc1` [Compound 1.271, (R)-N-(11-((1-benzyl-1H-indol-3-yl)methyl)piperidin-3-yl)-1H-indazol-5-amine], the Ki on ROCK2 (setting [1]) was 77.7 nM; at ROCK1 (Avg, 10 μM ATP) it was 332 nM.

For `Cc1c(CN2CC[C@@H](Nc3cccc4cnccc34)C2)cccc1NS(C)(=O)=O` [Compound 2.078, (R)-N-(3-((3-(isoquinolin-5-ylamino)pyrrolidin-1-yl)methyl)-2-methylphenyl)methanesulfonamide], the Ki on ROCK2 (setting [1]) was determined as 2.6 nM; at ROCK2 (average Ki, read-out: ROCK2 Ki), 2.6 nM; at ROCK1 (Avg, 10 μM ATP), 18.3 nM; on ROCK1 (average Ki), 18.3 nM.

In the case of `NC(=O)COc1cccc(CN2CC[C@@H](Nc3cccc4cnccc34)C2)c1` [Compound 2.040, (R)-2-(3-((3-(isoquinolin-5-ylamino)pyrrolidin-1-yl)methyl)phenoxy)acetamide], the Ki on ROCK2 (setting [1]) turned out to be 25.4 nM; at ROCK1 (Avg, 10 μM ATP), 59.6 nM.

Turning to `Cc1nc(CN2CCC[C@H](Nc3ccc4[nH]ncc4c3)C2)c(C)o1` [Compound 1.279, (S)-N-(1-((2,5-dimethyloxazol-4-yl)methyl)piperidin-3-yl)-1H-indazol-5-amine], the Ki was found to be 34.2 nM on ROCK2 (setting [1]) and 456 nM at ROCK1 (Avg, 10 μM ATP).

For the molecule `OCCn1ccc2cc(CN3CCC[C@@H](Nc4ccc5[nH]ncc5c4)C3)ccc21` [Compound 1.268, (R)-2-(5-((3-(1H-indazol-5-ylamino)piperidin-1-yl)methyl)-1H-indol-1-yl)ethanol], the Ki is 40.7 nM at ROCK2 (setting [1]) and 404 nM at ROCK1 (Avg, 10 μM ATP).

As to `CCSc1ccc(CN2CCC[C@H](Nc3ccc4[nH]ncc4c3)C2)cc1` [Compound 1.168, (S)-N-(1-(4-(ethylthio)benzyl)piperidin-3-yl)-1H-indazol-5-amine], the Ki at ROCK2 (setting [1]) was determined as 22.9 nM; at ROCK1 (Avg, 10 μM ATP), 162 nM.

As for `Cn1c(CN2CC[C@@H](Nc3cccc4cnccc34)C2)nc2ccccc21` [Compound 2.075, (R)-N-(1-((1-methyl-1H-benzo[d]imidazol-2-yl)methyl)pyrrolidin-3-yl)isoquinolin-5-amine], the Ki was found to be 21.7 nM on ROCK2 (setting [1]) and 123 nM at ROCK1 (Avg, 10 μM ATP).

Regarding `CCOC(=O)c1ccc(CN2CCC[C@@H](Nc3ccc4[nH]ncc4c3)C2)cc1` [Compound 1.209, (R)-ethyl 4-((3-(1H-indazol-5-ylamino)piperidin-1-yl)methyl)benzoate], the Ki at ROCK2 (setting [1]) was found to be 470 nM; at ROCK1 (Avg, 10 μM ATP) it was 4590 nM.

For the molecule `COc1ccc(CN2CCC[C@H](Nc3ccc4[nH]ncc4c3)C2)cc1NS(C)(=O)=O` [Compound 1.234, (S)-N-(5-((3-(1H-indazol-5-ylamino)piperidin-1-yl)methyl)-2-methoxyphenyl)methanesulfonamide], the Ki at ROCK2 (setting [1]) amounted to 166 nM; at ROCK1 (Avg, 10 μM ATP) it was 1740 nM.

Turning to `Clc1ccc(CN2CC[C@@H](Nc3cccc4cnccc34)C2)cc1Cl` [Compound 2.048, (R)-N-(1-(3,4-dichlorobenzyl)pyrrolidin-3-yl)isoquinolin-5-amine], the Ki at ROCK2 (setting [1]) worked out at 34.6 nM; at ROCK1 (Avg, 10 μM ATP) it was 71.5 nM.

In the case of `N#Cc1cccc(CN2CCC(Nc3cccc4cnccc34)C2)c1` (centres unmarked) [Compound 2.007, 3-((3-(isoquinolin-5-ylamino)pyrrolidin-1-yl)methyl)benzonitrile], the Ki at ROCK2 (setting [1]) was determined as 179 nM; on ROCK1 (Avg, 10 μM ATP), 390 nM.

As to `FC(F)(F)c1cccc(CN2CCC[C@@H](Nc3ccc4[nH]ncc4c3)C2)c1` [Compound 1.190, (R)-N-(1-(3-(trifluoromethyl)benzyl)piperidin-3-yl)-1H-indazol-5-amine], the Ki was determined as 71.8 nM on ROCK2 (setting [1]) and 326 nM at ROCK1 (Avg, 10 μM ATP).

Take `OCCOc1ccc(CN2CCC[C@H](Nc3ccc4[nH]ncc4c3)C2)cc1` [Compound 1.228]: the Ki was determined as 140 nM on ROCK2 (setting [1]) and 1880 nM on ROCK1 (Avg, 10 μM ATP).

For `O=C(O)COc1cccc(CN2CC[C@@H](Nc3cccc4cnccc34)C2)c1` [Compound 2.044, (R)-2-(3-((3-(isoquinolin-5-ylamino)pyrrolidin-1-yl)methyl)phenoxy)acetic acid], the Ki at ROCK2 (setting [1]) stood at 24.1 nM; on ROCK1 (Avg, 10 μM ATP), 81.4 nM.

For `CC1(C)OC[C@H](COc2cccc(CN3CCC[C@H](Nc4ccc5[nH]ncc5c4)C3)c2)O1` [Compound 1.214, N-((S)-1-(3-(((S)-2,2-dimethyl-1,3-dioxolan-4-yl)methoxy)benzyl)piperidin-3-yl)-1H-indazol-5-amine], the Ki at ROCK2 (setting [1]) stood at 143 nM; on ROCK1 (Avg, 10 μM ATP), 546 nM.

Regarding `Cc1cccc(CN2CCC[C@@H](Nc3ccc4[nH]ncc4c3)C2)c1` [Compound 1.192, (R)-N-(1-(3-methylbenzyl)piperidin-3-yl)-1H-indazol-5-amine], the Ki at ROCK2 (setting [1]) was determined as 37.7 nM; at ROCK1 (Avg, 10 μM ATP), 158 nM.

As to `CC(=O)NCc1cccc(CN2CC[C@@H](Nc3cccc4cnccc34)C2)c1` [Compound 2.063, (R)-N-(3-((3-(isoquinolin-5-ylamino)pyrrolidin-1-yl)methyl)benzyl)acetamide], the Ki stood at 73.9 nM on ROCK2 (setting [1]) and 206 nM on ROCK1 (Avg, 10 μM ATP).

As for `OCCOc1cccc(CN2CCC[C@H](Nc3ccc4[nH]ncc4c3)C2)c1` [Compound 1.090, (S)-2-(3-((3-(1H-indazol-5-ylamino)piperidin-1-yl)methyl)phenoxy)ethanol], the Ki at ROCK2 (setting [1]) was determined as 24.9 nM; at ROCK1 (Avg, 10 μM ATP), 281 nM.

For `CS(=O)(=O)N1CCCc2cc(CN3CCC[C@H](Nc4ccc5[nH]ncc5c4)C3)ccc21` [Compound 1.272, (S)-N-(1-((1-(methylsulfonyl)-1,2,3,4-tetrahydroquinolin-6-yl)methyl)piperidin-3-yl)-1H-indazol-5-amine], the Ki is 194 nM at ROCK2 (setting [1]) and 1820 nM at ROCK1 (Avg, 10 μM ATP).

As to `CS(=O)(=O)c1ccc(CN2CC[C@@H](Nc3ccc4[nH]ncc4c3)C2)cc1` [Compound 1.244, (R)-N-(1-(4-(methylsulfonyl)benzyl)pyrrolidin-3-yl)-1H-indazol-5-amine], the inhibition constant (Ki) at ROCK2 (setting [1]) is 139 nM; at ROCK1 (Avg, 10 μM ATP), 683 nM.

On to `O=S(=O)(Nc1cccc(CN2CC[C@@H](Nc3cccc4cnccc34)C2)c1)N1CCCCC1` [Compound 2.069, (R)-N-(3-((3-(isoquinolin-5-ylamino)pyrrolidin-1-yl)methyl)phenyl)piperidine-1-sulfonamide], for which the Ki on ROCK2 (setting [1]) worked out at 2.4 nM; at ROCK2 (average Ki, read-out: ROCK2 Ki), 2.4 nM; on ROCK1 (Avg, 10 μM ATP), 16.7 nM; at ROCK1 (average Ki) it was 16.7 nM.

Regarding `Cc1ccc(CN2CC[C@@H](Nc3cccc4c[n+]([O-])ccc34)C2)cc1OCCO` [Compound 2.080, (R)-5-(1-(3-(2-hydroxyethoxy)-4-methylbenzyl)pyrrolidin-3-ylamino)isoquinoline 2-oxide], the Ki on ROCK2 (setting [1]) was 126 nM; on ROCK1 (Avg, 10 μM ATP) it was 214 nM.

As for `c1cc(N[C@@H]2CCN(Cc3ccc4c(c3)OCCO4)C2)c2ccncc2c1` [Compound 2.056, (R)-N-(1-((2,3-dihydrobenzo[b][1,4]dioxin-6-yl)methyl)pyrrolidin-3-yl)isoquinolin-5-amine], the Ki at ROCK2 (setting [1]) came out at 48.7 nM; at ROCK1 (Avg, 10 μM ATP), 107 nM.

Regarding `O=c1[nH]ccc2c(N[C@@H]3CCN(Cc4cccc(OCCO)c4)C3)cccc12` [Compound 2.092, (R)-5-(1-(3-(2-hydroxyethoxy)benzyl)pyrrolidin-3-ylamino)isoquinolin-1(2H)-one], the Ki at ROCK2 (setting [1]) came out at 458 nM; on ROCK1 (Avg, 10 μM ATP) it was 1130 nM.

For the molecule `Cc1ccc(CN2CC[C@@H](Nc3cccc4cnccc34)C2)cc1OCC(=O)O` [Compound 2.073, (R)-2-(5-((3-(isoquinolin-5-ylamino)pyrrolidin-1-yl)methyl)-2-methylphenoxy)acetic acid], the inhibition constant Ki on ROCK2 (setting [1]) stood at 4.2 nM; on ROCK2 (average Ki, read-out: ROCK2 Ki), 4.2 nM; at ROCK1 (Avg, 10 μM ATP), 12.7 nM; on ROCK1 (average Ki) it was 12.7 nM.

On to `O=C(O)COc1cccc(CN2CCC[C@H](Nc3ccc4[nH]ncc4c3)C2)c1` [Compound 1.196, (S)-2-(3-((3-(1H-indazol-5-ylamino)piperidin-1-yl)methyl)phenoxy)acetic acid], for which the Ki worked out at 39.8 nM on ROCK2 (setting [1]) and 711 nM on ROCK1 (Avg, 10 μM ATP).

For `c1cc(CN2CC[C@@H](Nc3cccc4cnccc34)C2)cc(C2CC2)c1` [Compound 2.020, (R)-N-(1-(3-cyclopropylbenzyl)pyrrolidin-3-yl)isoquinolin-5-amine], the Ki stood at 36.5 nM on ROCK2 (setting [1]) and 101 nM at ROCK1 (Avg, 10 μM ATP).

Usually Ki stands for the equilibrium dissociation constant of an inhibitor or competing ligand from its target.
